Tests used:
[1] = test system: KP-1 cells; assay: Mouse model with grown cancer, KP-1; format: in vivo, mice (KSN Slc, female); settings: KP-1 tumor; oral, 2 weeks; relative tumor volume treated/control
Description: (§1) 1×10^7 KP-1 or Colo320DM cells/0.1 ml PBS/mouse were inoculated subcutaneously to mice (KSN Slc, female). From 1 to 2 weeks after the transplantation, 0.5% aqueous methyl cellulose solution, E7820 (0.5% methyl cellulose suspension: 50, 100, 200 mg/kg: twice a day), or ZD6474 (0.5% methyl cellulose suspension: 50, 100 mg/kg: once a day), or both of E7820 (50, 100, 200 mg/kg: twice a day) and ZD6474 (50, 100 mg/kg: once a day), were orally administered for 2 weeks. The transplanted tumor volume was measured twice every week, and the relative tumor volume was calculated according to the following equation: Relative tumor volume=tumor volume on the day after last administration/tumor volume at first administration.
(§2) The antitumor effect was expressed in T/C % (T/C %=relative tumor volume in the chemical administration group/relative tumor volume in the control group).

[2] = test system: KP-1 or Colo320DM cells; assay: Mouse model with grown cancer (FIG. 1, tumor not given); format: in vivo, mice (KSN Slc, female); settings: oral, 2 weeks
Description: as §1, §2

[3] = test system: Colo320DM cells; assay: Mouse model with grown cancer, Colo320DM; format: in vivo, mice (KSN Slc, female); settings: Colo320DM tumor; oral, 2 weeks; relative tumor volume treated/control
Description: as §1, §2

[4] = test system: Human umbilical vein endothelial cells (HUVEC); assay: Tube formation of endothelial cell, FGF inhibitor wells, combination with E7820; format: cell-based; settings: inhibition rate (fa) 0.5, 10 ng/ml EGF and 20 ng/ml bFGF
Description: (§5) 400 μl of type I collagen gel (Nitta Gelatin) were added onto each well of a 24-well plate (FALCON) and gelled at 37° C. in a CO2 incubator for 40 min. A serum-free medium (human endothelial-SFM basal growth medium; GIBCO BRL) containing 20 ng/ml EGF (GIBCO BRL) was prepared, and 200 μl of this medium solution were added onto each well containing the type I collagen gel. Human umbilical vein endothelial cells (HUVEC) were suspended in a serum-free medium (human endothelial-SFM basal growth medium; GIBCO BRL) to prepare a cell suspension at a density of 5×10^5 cells/ml. 200 μl of this suspension were put into each well containing the type I collagen gel and serum-free medium, and cultured overnight.
(§6) After incubation, […] of 3.3 mg/ml MTT (SIGMA) were added into each well and reacted at 37° C. in a CO2 incubator for 3 hours to stain the cells. Under a microscope (SZX12 manufactured by OLYMPUS), an image of a tube formed by HUVEC was incorporated (M-3204C manufactured by OLYMPUS). The tube length in the incorporated image was measured by image analysis software Mac SCOPE 2.56 (manufactured by MITANI) to quantify the tube formation of HUVEC.

[5] = test system: Human umbilical vein endothelial cells; assay: Proliferation of FGF-induced endothelial cells, combination with E7820; format: cell-based; settings: inhibition rate (fa) 0.5, 20 ng/ml bFGF; for Combination index (CI): formula of Chou et al.
Description: (§3) On the next day, ½ serial dilutions of FGF receptor kinase inhibitors (PD166866, PD173074) or FGF antibody as FGF inhibitors, ½ serial dilutions of E7820, and dilutions containing two of the above substances were prepared respectively, and each dilution was added in a volume of 100 μl/well to each well containing the cultured human umbilical vein endothelial cells, and the cells were further cultured.
(§4) After 3 days, 5 ml cell counting kit solution (Wako Pure Chemical Industries, Ltd.) were diluted with PBS to give 40 ml dilution, and 50 μl of this dilution were added to each well, then incubated at 37° C. for 3 to 4 hours and measured for its absorbance at 415 nm by a plate reader (Corona Denki Co., Ltd.).

[6] = test system: Human umbilical vein endothelial cells; assay: Proliferation of VEGF-induced endothelial cells, combination with E7820; format: cell-based; settings: inhibition rate (fa) 0.5, 20 ng/ml VEGF; for Combination index (CI): formula of Chou et al.
Description: as §3, with “VEGF” for “FGF”, “(ZD6474, ZD4190, SU5416, SU6668)” for “(PD166866, PD173074)”, “inhibitors, ½ serial dilutions of VEGF antibody,” for “inhibitors,”
as §4

[7] = test system: Human umbilical vein endothelial cells (HUVEC); assay: Tube formation of endothelial cell, VEGF inhibitor wells, combination with E7820
Description: as §5, §6

## Cc1ccc(NS(=O)(=O)c2cccc(C#N)c2)c2[nH]cc(C#N)c12 [E7820]
[1]
  T/C %: 83%
[2]
  Tumor growth / antitumor effect (FIG. 1): tumor growth was inhibited
[3]
  T/C %: 60%

## COc1cc(OC)cc(-c2cc3cnc(N)nc3nc2NC(=O)NC(C)(C)C)c1 [PD166866]
[4]
  Combination effect: Synergistic
[5]
  Combination effect: Synergistic
  Combination index (CI): 0.5

## CCN(CC)CCCCNc1ncc2cc(-c3cc(OC)cc(OC)c3)c(NC(=O)NC(C)(C)C)nc2n1 [PD173074]
[5]
  Combination effect: Synergistic
  Combination index (CI): 0.4

## Cc1cc(C)c(/C=C2\C(=O)Nc3ccccc32)[nH]1 [SU5416]
[6]
  Combination effect: Synergistic
  Combination index (CI): 0.4

## Cc1[nH]c(/C=C2\C(=O)Nc3ccccc32)c(C)c1CCC(=O)O [SU6668]
[6]
  Combination effect: Synergistic
  Combination index (CI): 0.5

## COc1cc2c(Nc3ccc(Br)cc3F)ncnc2cc1OCCn1ccnn1 [ZD4190]
[6]
  Combination effect: Synergistic
  Combination index (CI): 0.3

## COc1cc2c(Nc3ccc(Br)cc3F)ncnc2cc1OCC1CCN(C)CC1 [ZD6474]
[1]
  T/C %: 47%
[7]; inhibition rate (fa) 0.5, 10 ng/ml EGF and 20 ng/ml VEGF
  Combination effect: Synergistic
[7]; inhibition rate (fa) 0.5, tube length, 10 ng/ml EGF and 20 ng/ml VEGF
  Combination index (CI): 0.4
[2]
  Tumor growth / antitumor effect (FIG. 1): tumor growth was inhibited
[3]
  T/C %: 56%
[6]
  Combination effect: Synergistic
  Combination index (CI): 0.4
